According to patent publication US20220183997A1, “USE OF C[…] COMBINATION WITH ANTIBIOTICS” (GW Pharma Limited, priority 2019, published 2022):

Assays:
Assay type in all cases: cell-based
E. coli [1] = test: CBD-mediated OMV inhibition, OMV release quantified by nanoparticle tracking analysis; settings: 1 h, vs control
Protocol: (§1) E. coli and S. aureus cultures were maintained by plating on Mueller-Hinton agar plates and weekly sub-culturing was performed according to previously established methods (Iqbal et. al. 2013).
(§2) Before OMV isolation, all bacterial growth medium was pre-treated before use by ultracentrifugation at 75,000 g for 24 h, to ensure minimum contamination with extracellular vesicles (EVs) from the medium.
(§3) For OMV isolation, bacteria were grown in EV-free medium (as described above) for 24 h at 37° C. and 5% CO2, the culture medium collected and centrifuged once at 400 g for 10 min for removal of cells, followed by centrifugation at 4000 g for 1 h at 4° C. to remove cell debris. […]
(§4) Samples were diluted 1:50 in sterile-filtered EV-free DPBS and the number of particles in the field of view was maintained in the range of 20-40 with a minimum concentration of samples at 5×10^7 particles/ml. Camera settings were according to the manufacturer's instructions (Malvern), five 30 sec videos per sample were recorded and replicate histograms averaged. […]
(§5) The experiment was repeated three times and the OMVs were quantified using NTA analysis. Cell viability was assessed after 1 h treatment with CBD compared to controls and before the start of every experiment using viable count.

S. aureus [2] = test: CBD-mediated membrane vesicle inhibition, release quantified by nanoparticle tracking analysis; settings: CBD 1 or 5 μM, 1 h
Protocol: as §1, §2, §3, §4, §5

E. coli [3] = test: Disc diffusion test, antibiotic discs with CBD disc; settings: antibiotic disc + 5 μM CBD disc vs antibiotic alone, 24 h
Protocol: (§6) Discs were impregnated with the following […]: Colistin (10 μg/ml), Rifampicin (15 μg/ml), Erythromycin (15 μg/ml), Kanamycin (30 μg/ml) and Vancomycin (5 μg/ml).
(§7) Concentration of the antibiotics used was based on previously published and established MIC values (Moskowitz et al., 2010; Rojas et al., 2017; Goldstein et al., 2018; Maclayton et al., 2006, Kshetry et al., 2016).
(§8) E. coli and S. aureus agar plates were prepared for the disc diffusion test by soaking a sterile paper disc in 5 μM CBD and placing it in the middle of the agar plate, while the impregnated antibiotic discs were placed equidistant to the CBD disc. Zone of inhibition was assessed after 24 h.

S. aureus [4] = test: as above; settings: antibiotic disc + 5 μM CBD disc vs antibiotic alone, 24 h
Protocol: as §6, §7, §8

Molecule	increase of antibacterial effect (radius of zone of inhibition) when combined with CBD (E. coli [3])	sensitisation to antibiotic by CBD (in words) (E. coli [3])	also measured
C=C(C)[C@@H]1CCC(C)=C[C@H]1c1c(O)cc(CCCCC)cc1O [CBD, Cannabidiol]	–	–	reduction of total OMV release (E. coli [1]; 1 μM CBD): 73%; reduction of total OMV release (E. coli [1]; 5 μM CBD): 54%; effect on membrane vesicle release (S. aureus [2]): no effect
CC[C@H]1OC(=O)[C@H](C)[C@@H](O[C@H]2C[C@@](C)(OC)[C@@H](O)[C@H](C)O2)[C@H](C)[C@@H](O[C@@H]2O[C@H](C)C[C@H](N(C)C)[C@H]2O)[C@](C)(O)C[C@@H](C)C(=O)[C@H](C)[C@@H](O)[C@]1(C)O [Erythromycin]	35%	–	effect of CBD on antibacterial activity of antibiotic (in words) (S. aureus [4]): reduced antibacterial effects
NC[C@H]1O[C@H](O[C@H]2[C@H](O)[C@@H](O[C@H]3O[C@H](CO)[C@@H](O)[C@H](N)[C@H]3O)[C@H](N)C[C@@H]2N)[C@H](O)[C@@H](O)[C@@H]1O [Kanamycin]	18%	–	increase of antibiotic activity (radius of zone around diffusion disk) by CBD (S. aureus [4]): 30%
CO[C@H]1/C=C/O[C@@]2(C)Oc3c(C)c(O)c4c(O)c(c(/C=N/N5CCN(C)CC5)c(O)c4c3C2=O)NC(=O)/C(C)=C\C=C\[C@H](C)[C@H](O)[C@@H](C)[C@@H](O)[C@@H](C)[C@H](OC(C)=O)[C@@H]1C [Rifampicin]	50%	–	–
CN[C@H](CC(C)C)C(=O)N[C@H]1C(=O)N[C@@H](CC(N)=O)C(=O)N[C@H]2C(=O)N[C@H]3C(=O)N[C@H](C(=O)N[C@H](C(=O)O)c4cc(O)cc(O)c4-c4cc3ccc4O)[C@H](O)c3ccc(c(Cl)c3)Oc3cc2cc(c3O[C@@H]2O[C@H](CO)[C@@H](O)[C@H](O)[C@H]2O[C@H]2C[C@](C)(N)[C@H](O)[C@H](C)O2)Oc2ccc(cc2Cl)[C@H]1O [Vancomycin]	–	did not increase antibacterial effects	–
Colistin [Colisitin]	–	not	–
